In US20250179103A1, “6-OXODECAHYDROPYRROLO[1,2-A][1,5]DIAZOCINE AND 6-OXODECAHYDRO-4H-PYRROLO[2,1-D][1,5]THIAZOCINE DERIVATIVES AS STAT3 AND STAT6 MODULATORS FOR THE TREATMENT OF CANCER AND INFLAMMATORY CONDITIONS” (Recludix Pharma, Inc., priority 2022, published 2025):

What was measured:
[1] = target: T1, Recombinant STAT3 protein (STAT3(G127-I722)) (Homo sapiens, UniProt P40763); assay: STAT3 Fluorescence Polarization (FP) Assay; type: binding; conditions: STAT3(G127-I722) 25 nM, probe 5-FAM-GpYLPQTV-NH2 2 nM, 45-minute incubation
T1 construct: Recombinant STAT3 protein (STAT3(G127-I722))
How it was run: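 STAT3(G127-I722), 25 nM, was mixed with 2 nM 5-FAM-GpYLPQTV-NH2 probe in HEPES pH 7.4 buffer with 1% DMSO and serially diluted compound. FP (mP) was read after 45 min at room temperature. IC50 came from nonlinear regression.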

[2] = target: T2, Recombinant STAT6 protein (STAT6(W123-T658)) (Homo sapiens, UniProt P42226); assay: STAT6 Fluorescence Polarization (FP) Assay; type: binding; conditions: STAT6(W123-T658) 250 nM, probe 5-FAM-ApYKPFQDLI-NH2 2 nM, 45-minute incubation
T2 construct: Recombinant STAT6 protein (STAT6(W123-T658))
T2 sequence (P42226 123-658): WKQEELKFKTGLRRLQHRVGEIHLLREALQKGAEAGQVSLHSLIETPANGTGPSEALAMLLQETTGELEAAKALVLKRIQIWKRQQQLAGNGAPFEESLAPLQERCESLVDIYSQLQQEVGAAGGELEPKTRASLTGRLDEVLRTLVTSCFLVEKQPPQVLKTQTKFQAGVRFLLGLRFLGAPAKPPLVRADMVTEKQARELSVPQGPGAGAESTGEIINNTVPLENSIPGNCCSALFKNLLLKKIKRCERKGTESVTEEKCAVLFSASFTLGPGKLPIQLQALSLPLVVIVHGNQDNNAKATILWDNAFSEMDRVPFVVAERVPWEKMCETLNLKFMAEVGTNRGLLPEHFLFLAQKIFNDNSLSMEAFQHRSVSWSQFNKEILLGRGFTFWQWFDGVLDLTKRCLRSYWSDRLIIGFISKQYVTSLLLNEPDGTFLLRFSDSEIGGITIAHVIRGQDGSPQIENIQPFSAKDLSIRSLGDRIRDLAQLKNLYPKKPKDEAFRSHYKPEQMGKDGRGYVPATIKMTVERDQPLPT
How it was run: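 Displacement of a fluorescent phosphotyrosine peptide (5-FAM-ApYKPFQDLI-NH2, 2 nM) from STAT6(W123-T658) (250 nM), 1% DMSO, pH 7.4 HEPES buffer. After 45 min at room temperature, polarization (mP) was plotted versus log compound concentration and fitted by nonlinear regression to give IC50.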

T1 sequence (P40763 127-722): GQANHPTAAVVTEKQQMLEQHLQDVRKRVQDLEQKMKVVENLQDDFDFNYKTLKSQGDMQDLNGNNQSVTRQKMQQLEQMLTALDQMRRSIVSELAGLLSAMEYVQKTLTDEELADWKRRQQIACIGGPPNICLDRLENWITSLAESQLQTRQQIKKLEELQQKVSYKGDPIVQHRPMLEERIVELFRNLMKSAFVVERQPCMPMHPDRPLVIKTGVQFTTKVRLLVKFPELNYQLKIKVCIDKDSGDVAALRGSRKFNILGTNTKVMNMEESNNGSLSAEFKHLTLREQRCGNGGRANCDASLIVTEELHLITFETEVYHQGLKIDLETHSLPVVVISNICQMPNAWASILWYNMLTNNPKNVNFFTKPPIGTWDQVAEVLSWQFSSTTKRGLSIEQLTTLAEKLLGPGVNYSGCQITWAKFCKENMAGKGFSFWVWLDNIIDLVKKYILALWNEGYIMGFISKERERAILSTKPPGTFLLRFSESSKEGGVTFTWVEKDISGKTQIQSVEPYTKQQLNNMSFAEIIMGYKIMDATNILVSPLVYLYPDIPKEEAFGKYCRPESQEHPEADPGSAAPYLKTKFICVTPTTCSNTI

| SMILES | IC50 [1] | IC50 [2] |
| --- | --- | --- |
| CC(=O)N1CC[C@H]2CC[C@@H](C(=O)N3C[C@H](c4ccccc4)[C@@H](O)C3)N2C(=O)[C@@H](NC(=O)c2cc3cc(C(F)(F)P(=O)(O)O)ccc3s2)C1 (relative stereo) [Compound 60, ((2-(((5S,8S,10aR)-3-acetyl-8-((rel-trans)-3-hydroxy-4-phenylpyrrolidine-1-carbonyl)-6-oxodecahydropyrrolo[1,2-a][1,5]diazocin-5-yl)carbamoyl)benzo[b]thiophen-5-yl)difluoromethyl)phosphonic acid] | 1 to 10 µM | ≤ 0.3 µM |
| O=C(N[C@H]1CCN(CC(F)F)C[C@H]2CC[C@@H](C(=O)N3CC(c4cc[nH]c(=O)c4)CC34CC4)N2C1=O)c1ccc2ccc(C(F)(F)P(=O)(O)O)cc2c1 (stereo partly drawn) [Compound 234, ((7-(((5S,8S,10aR)-2-(2,2-difluoroethyl)-6-oxo-8-(6-(2-oxo-1,2-dihydropyridin-4-yl)-4-azaspiro[2.4]heptane-4-carbonyl)decahydropyrrolo[1,2-a][1,4]diazocin-5-yl)carbamoyl)naphthalen-2-yl)difluoromethyl)phosphonic acid] | > 10 µM | ≤ 0.3 µM |
| CC(=O)N1CC[C@H]2CC[C@@H](C(=O)N(C)c3ccc(C#N)cc3)N2C(=O)[C@@H](NC(=O)c2cc3cc(C(F)(F)P(=O)(O)O)ccc3s2)C1 [Compound 123, ((2-(((5S,8S,10aR)-3-acetyl-8-((4-cyanophenyl)(methyl)carbamoyl)-6-oxodecahydropyrrolo[1,2-a][1,5]diazocin-5-yl)carbamoyl)benzo[b]thiophen-5-yl)difluoromethyl)phosphonic acid] | 1 to 10 µM | 3 to 30 µM |
| COC1CCN(C2CCN(C(=O)[C@@H]3CC[C@@H]4CCN(C(C)=O)C[C@H](NC(=O)c5cc6cc(C(F)(F)P(=O)(O)O)ccc6s5)C(=O)N43)C2)CC1 (stereo partly drawn) [Compound 83, ((2-(((5S,8S,10aR)-3-acetyl-8-(3-(4-methoxypiperidin-1-yl)pyrrolidine-1-carbonyl)-6-oxodecahydropyrrolo[1,2-a][1,5]diazocin-5-yl)carbamoyl)benzo[b]thiophen-5-yl)difluoromethyl)phosphonic acid] | 1 to 10 µM | 3 to 30 µM |
| Cc1ccc2onc(C(=O)N3CC[C@H]4CC[C@@H](C(=O)N5C(=O)N(c6cccnc6)C(=O)C56CC6)N4C(=O)[C@@H](NC(=O)c4ccc5ccc([C@H](F)P(=O)(O)O)cc5c4)C3)c2c1 [Compound 386, ((R)-(7-(((5S,8S, 10aR)-8-(5,7-dioxo-6-(pyridin-3-yl)-4,6-diazaspiro[2.4]heptane-4-carbonyl)-3-(5-methylbenzo[d]isoxazole-3-carbonyl)-6-oxodecahydropyrrolo [1,2-a][1,5]diazocin-5-yl)carbamoyl)naphthalen-2-yl)fluoromethyl)phosphonic acid] | > 10 µM | ≤ 0.3 µM |
| Cc1ccc2onc(C(=O)N3CC[C@H]4CC[C@@H](C(=O)N5C[C@H](c6ccn(C)c(=O)c6)CC56CC6)N4C(=O)[C@@H](NC(=O)c4ccc5ccc([C@@H](F)P(=O)(O)O)cc5c4)C3)c2c1 [Compound 391, ((S)-fluoro(7-(((5S, 8S,10aR)-8-((S)-6-(1-methyl-2-oxo-1,2-dihydropyridin-4-yl)-4-azaspiro[2.4]heptane-4-carbonyl)-3-(5-methylbenzo[d]isoxazole-3-carbonyl)-6-oxodecahydropyrrolo [1,2-a][1,5]diazocin-5-yl)carbamoyl)naphthalen-2-yl)methyl) phosphonic acid] | > 10 µM | ≤ 0.3 µM |
| CC(=O)N1CC[C@H]2CC[C@@H](C(=O)N3CC(C#N)C4(CCC4)C3)N2C(=O)[C@@H](NC(=O)c2cc3cc(C(F)(F)P(=O)(O)O)ccc3s2)C1 (stereo partly drawn) [Compound 64, ((2-(((5S,8S,10aR)-3-acetyl-8-(8-cyano-6-azaspiro[3.4]octane-6-carbonyl)-6-oxodecahydropyrrolo[1,2-a][1,5]diazocin-5-yl)carbamoyl)benzo[b]thiophen-5-yl)difluoromethyl)phosphonic acid] | 1 to 10 µM | 0.3 to 3 µM |
| Cc1ccc2onc(C(=O)N3CC[C@H]4CC[C@@H](C(=O)N5C[C@@H]6C[C@H]5CO6)N4C(=O)[C@@H](NC(=O)c4ccc5ccc(C(F)P(=O)(O)O)cc5c4)C3)c2c1 (stereo partly drawn) [Compound 372, ((7-(((5S,8S,10aR)-8-((1S,4S)-2-oxa-5-azabicyclo[2.2.1]heptane-5-carbonyl)-3-(5-methylbenzo[d]isoxazole-3-carbonyl)-6-oxodecahydropyrrolo [1,2-a][1,5]diazocin-5-yl)carbamoyl)naphthalen-2-yl)fluoromethyl)phosphonic acid] | > 10 µM | ≤ 0.3 µM |
| CC(=O)N1CC[C@H]2CC[C@@H](C(=O)N(C)c3ccccc3)N2C(=O)[C@@H](NC(=O)/C=C/c2cccc(C(F)(F)P(=O)(O)O)c2)C1 [Compound 51, ((3-((E)-3-(((5S,8S,10aR)-3-acetyl-8-(methyl(phenyl)carbamoyl)-6-oxodecahydropyrrolo[1,2-a][1,5]diazocin-5-yl)amino)-3-oxoprop-1-en-1-yl)phenyl)difluoromethyl)phosphonic acid] | > 10 µM | 3 to 30 µM |
| CCC(C)(C)c1ccc(N(C)C(=O)[C@@H]2CC[C@@H]3CCN(C(C)=O)C[C@H](NC(=O)c4cc5cc(C(F)(F)P(=O)(O)O)ccc5s4)C(=O)N32)cc1 [Compound 159, ((2-(((5S,8S,10aR)-3-acetyl-8-(methyl(4-(tert-pentyl)phenyl)carbamoyl)-6-oxodecahydropyrrolo[1,2-a][1,5]diazocin-5-yl)carbamoyl)benzo[b]thiophen-5-yl)difluoromethyl)phosphonic acid] | 1 to 10 µM | 0.3 to 3 µM |
| CC(=O)N1CC[C@H]2CC[C@@H](C(=O)N3CC(c4cccc(C#N)c4)C3)N2C(=O)[C@@H](NC(=O)c2cc3cc(C(F)(F)P(=O)(O)O)ccc3s2)C1 [Compound 208, ((2-(((5S,8S,10aR)-3-acetyl-8-(3-(3-cyanophenyl)azetidine-1-carbonyl)-6-oxodecahydropyrrolo[1,2-a][1,5]diazocin-5-yl)carbamoyl)benzo[b]thiophen-5-yl)difluoromethyl)phosphonic acid] | ≤ 0.1 µM | 0.3 to 3 µM |
| CC(=O)N1CC[C@H]2CC[C@@H](C(=O)N3C[C@H](c4ccccc4)[C@@H](C#N)C3)N2C(=O)[C@@H](NC(=O)c2ccc3ccc(C(F)(F)P(=O)(O)O)cc3c2)C1 (relative stereo) [Compound 203, ((7-(((5S,8S,10aR)-3-acetyl-8-(rel-trans)-3-cyano-4-phenylpyrrolidine-1-carbonyl)-6-oxodecahydropyrrolo[1,2-a][1,5]diazocin-5-yl)carbamoyl)naphthalen-2-yl)difluoromethyl)phosphonic acid] | 1 to 10 µM | ≤ 0.3 µM |
| CC(=O)N1CC[C@H]2CC[C@@H](C(=O)N3CCC(OCc4cncs4)C3)N2C(=O)[C@@H](NC(=O)c2cc3cc(C(F)(F)P(=O)(O)O)ccc3s2)C1 (stereo partly drawn) [Compound 82, ((2-(((5S,8S,10aR)-3-acetyl-6-oxo-8-(3-(thiazol-5-ylmethoxy)pyrrolidine-1-carbonyl)decahydropyrrolo[1,2-a][1,5]diazocin-5-yl)carbamoyl)benzo[b]thiophen-5-yl)difluoromethyl)phosphonic acid] | 1 to 10 µM | 0.3 to 3 µM |
| CC(=O)N1CC[C@H]2CC[C@@H](C(=O)N3CC[C@@H](C(=O)N4CCCCC4)C3)N2C(=O)[C@@H](NC(=O)c2cc3cc(C(F)(F)P(=O)(O)O)ccc3s2)C1 [Compound 194, ((2-(((5S,8S,10aR)-3-acetyl-6-oxo-8-((R)-3-(piperidine-1-carbonyl)pyrrolidine-1-carbonyl)decahydropyrrolo[1,2-a][1,5]diazocin-5-yl)carbamoyl)benzo[b]thiophen-5-yl)difluoromethyl)phosphonic acid] | 1 to 10 µM | 0.3 to 3 µM |
| COc1ccc2c(C(=O)N3CC[C@H]4CC[C@@H](C(=O)N5CCOCC5)N4C(=O)[C@@H](NC(=O)c4ccc5ccc(C(F)P(=O)(O)O)cc5c4)C3)noc2c1 (stereo partly drawn) [Compound 363, (fluoro(7-(((5S,8S,10aR)-3-(6-methoxybenzoyl[d]isoxazole-3-carbonyl)-8-(morpholine-4-carbonyl)-6-oxodecahydropyrrolo [1,2-a][1,5]diazocin-5-yl)carbamoyl)naphthalen-2-yl)methyl)phosphonic acid] | > 10 µM | ≤ 0.3 µM |
| CC(=O)N1CC[C@H]2CC[C@@H](C(=O)N3CC[C@@H](c4ccccc4)C3)N2C(=O)[C@@H](NC(=O)c2cc3cc(C(F)(F)P(=O)(O)O)ccc3s2)C1 [Compound 97, ((2-(((5S,8S,10aR)-3-acetyl-6-oxo-8-((S)-3-phenylpyrrolidine-1-carbonyl)decahydropyrrolo[1,2-a][1,5]diazocin-5-yl)carbamoyl)benzo[b]thiophen-5-yl)difluoromethyl)phosphonic acid] | 0.1 to 1 µM | ≤ 0.3 µM |
